Experimental data reported in article PMC6934184, “Selective DNA-PKcs inhibition extends the therapeutic index of localized radiotherapy and chemotherapy” (The Journal of Clinical Investigation, 2019).

Target: T1, PDGFRB (PDGFR beta) (Homo sapiens, UniProt P09619)
T1 construct: purchased Thermo Fisher Scientific (Life Technologies) SelectScreen
Experiment: SelectScreen Z'LYTE
Assay type: biochemical
Procedure, shortened: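 SelectScreen broad panel; activity (Z'LYTE, Adapta) plus binding formats. ATP: Km app for CSF1R Z'LYTE; 10 for CAMK1 Adapta. Readout = % per kinase.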

T1 sequence (P09619 33-1106): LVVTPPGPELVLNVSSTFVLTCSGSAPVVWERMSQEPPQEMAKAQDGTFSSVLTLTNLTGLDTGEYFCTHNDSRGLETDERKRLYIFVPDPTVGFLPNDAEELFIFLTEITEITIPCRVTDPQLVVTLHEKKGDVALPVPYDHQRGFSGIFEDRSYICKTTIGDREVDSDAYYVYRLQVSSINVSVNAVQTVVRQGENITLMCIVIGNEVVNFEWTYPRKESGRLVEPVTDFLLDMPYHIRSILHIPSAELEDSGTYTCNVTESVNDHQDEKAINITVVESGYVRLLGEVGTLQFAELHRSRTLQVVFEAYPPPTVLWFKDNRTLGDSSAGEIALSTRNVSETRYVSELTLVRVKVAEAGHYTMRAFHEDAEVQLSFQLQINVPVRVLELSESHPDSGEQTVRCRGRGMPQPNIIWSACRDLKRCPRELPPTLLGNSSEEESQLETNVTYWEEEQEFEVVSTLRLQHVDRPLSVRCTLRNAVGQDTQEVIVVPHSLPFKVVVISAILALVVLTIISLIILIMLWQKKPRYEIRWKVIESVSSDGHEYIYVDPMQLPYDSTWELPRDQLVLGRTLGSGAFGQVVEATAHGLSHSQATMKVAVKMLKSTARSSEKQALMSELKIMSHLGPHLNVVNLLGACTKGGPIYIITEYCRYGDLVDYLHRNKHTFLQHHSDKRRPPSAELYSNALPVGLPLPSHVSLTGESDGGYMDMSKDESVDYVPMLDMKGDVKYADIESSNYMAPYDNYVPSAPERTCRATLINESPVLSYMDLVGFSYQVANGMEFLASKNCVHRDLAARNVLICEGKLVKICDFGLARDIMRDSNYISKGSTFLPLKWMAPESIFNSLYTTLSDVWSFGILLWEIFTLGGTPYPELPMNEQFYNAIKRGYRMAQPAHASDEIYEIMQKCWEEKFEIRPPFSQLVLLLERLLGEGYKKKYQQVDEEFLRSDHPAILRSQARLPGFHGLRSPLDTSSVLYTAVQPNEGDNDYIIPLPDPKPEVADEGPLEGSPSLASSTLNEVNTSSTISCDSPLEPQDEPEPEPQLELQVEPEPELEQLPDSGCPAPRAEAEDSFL

CN(C(=O)CN1CCOCC1)c1ccc2sc3c(-c4cccc5c(=O)cc(N6CC7CCC(C6)O7)oc45)cccc3c2c1 [NU5455]
inhibition at 1 µM: 11%
